The test addresses T1, human cannabinoid CB2 receptor (Homo sapiens, UniProt P34972).
T1 construct: expressed in transfected cells; host or cells: Saccharomyces cerevisiae strain MMY23 (expresses a chimeric Gpa1/human Galpha-i3 G-protein alpha subunit)
Nature of the test: Cannabinoid CB2 receptor agonist activity, yeast reporter assay. It counts as cell-based. As to conditions: for Emax: read-out: efficacy (Emax) at the cloned human cannabinoid CB2 receptor. The essentials:
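Agonism read in S. cerevisiae strain MMY23 with the human CB2 receptor integrated at ura3 under the GPD promoter, coupled through a Gpa1/human Gαi3 C-terminal chimeric G-alpha. Compounds were added in DMSO (1% final). Fluorescence versus concentration was fitted by four-parameter fit to give a concentration effect value.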
In general terms: A reporter such as luciferase makes a cellular process visible.

Molecules are shown by their SMILES. A value given as a limit tells only on which side of the number the result lay.

T1 sequence (P34972 whole entry): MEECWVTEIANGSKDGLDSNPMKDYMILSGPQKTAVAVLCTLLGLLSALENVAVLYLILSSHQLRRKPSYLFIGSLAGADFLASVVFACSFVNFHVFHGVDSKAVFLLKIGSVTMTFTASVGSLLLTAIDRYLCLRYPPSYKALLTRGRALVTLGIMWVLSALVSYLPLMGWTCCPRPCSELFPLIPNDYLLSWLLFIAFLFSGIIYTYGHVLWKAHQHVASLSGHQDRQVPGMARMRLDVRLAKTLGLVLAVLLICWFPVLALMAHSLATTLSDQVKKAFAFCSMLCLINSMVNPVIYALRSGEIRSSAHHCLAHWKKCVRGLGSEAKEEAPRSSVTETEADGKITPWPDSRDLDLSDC

What is called EC50 is the concentration needed to bring the measured effect to its halfway point. Higher therefore signals a less potent agent. As usually defined, the Emax is the greatest response seen or fitted, relative to the assay's reference. Turning to `O=C(NCc1ccc(F)cc1)c1cnc(Nc2ccc(OC(F)(F)F)c(Cl)c2)nc1C(F)(F)F` [Example 111, 2-(3-Chloro-4-trifluoromethoxy-phenylamino)-4-trifluoromethyl-pyrimidine-5-carboxylic acid 4-fluoro-benzylamide], the EC50 is above 1000 nM and the Emax was below 50%.
On the same counts, the results for `N#Cc1ccc(CNC(=O)c2cnc(Nc3c(Cl)cccc3Cl)nc2C(F)(F)F)cc1` [Example 71, 2-(2,6-Dichloro-phenylamino)-4-trifluoroniethyl-pyrimidine-5-carboxylic acid N-(4-cyano-benzyl)amide] are above 1000 nM and below 50%.
On the same counts, the results for `O=C(NCc1ccc(F)cc1F)c1cnc(Nc2cccc(Cl)c2)nc1C(F)(F)F` [Example 103, 2-(3-Chloro-phenylamino)-4-trifluoromethyl-pyrimidine-5-carboxylic acid 2,4-difluoro-benzylamide] are 20 to 1000 nM and above 50%.
On the same counts, the results for `O=C(NCc1ccc(F)cc1)c1cnc(Nc2cccc(F)c2)nc1C(F)(F)F` [Example 23, 2-(3-Fluorophenylamino)-4-trifluoromethylpyrimidine-5-carboxylic acid 4-fluorobenzyl-amide] are 20 to 1000 nM and above 50%.
As for `COc1ccc(CNC(=O)c2cnc(Nc3cccc(Cl)c3)nc2C(F)(F)F)cc1` [Example 4, 2-(3-Chlorophenylamino)-4-trifluoromethylpyrimidine-5-carboxylic acid 4-methoxybenzyl-amide], the EC50 was 20 to 1000 nM and the maximal response (Emax) is above 50%.
Turning to `N#Cc1ccc(CNC(=O)c2cnc(Nc3ccc(Cl)c(Cl)c3)nc2C(F)(F)F)cc1` [Example 68, 2-(3,4-Dichloro-phenylamino)-4-trifluoromethyl-pyrimidine-5-carboxylic acid N-(4-cyano-benzyl)amide], the EC50 is above 1000 nM and the Emax was below 50%.
On the same counts, the results for `O=C(NCc1ccnc(F)c1)c1cnc(Nc2cccc(Cl)c2)nc1C(F)(F)F` [Example 29, 2-(3-Chloro-phenylamino)-4-trifluoromethyl-pyrimidine-5-carboxylic acid (2-fluoro-pyridin-4-ylmethyl)-amide] are 20 to 1000 nM and above 50%.
On the same counts, the results for `C[C@@H](NC(=O)c1cnc(Nc2cccc(Cl)c2)nc1C(F)(F)F)c1ccccc1` [Example 108, 2-(3-Chloro-phenylamino)-4-trifluoromethyl-pyrimidine-5-carboxylic acid ((R)-1-phenyl-ethyl)-amide] are above 1000 nM and below 50%.
The like results for `O=C(NCc1ccncc1)c1cnc(Nc2cccc(F)c2)nc1C(F)(F)F` [Example 20, 2-(3-Fluorophenylamino)-4-trifluoromethylpyrimidine-5-carboxylic acid (pyridin-4-ylmethyl)amide] were, in that order, 20 to 1000 nM and above 50%.
Turning to `O=C(NCc1ccc(F)cc1)c1cnc(Nc2cccc(Cl)c2Cl)nc1C(F)(F)F` [Example 99, 2-(2,3-Dichloro-phenylamino)-4-trifluoromethyl-pyrimidine-5-carboxylic acid 4-fluoro-benzylamide], the EC50 lay within 20 to 1000 nM and the Emax is above 50%.
As for `CC(C)(C)c1ccc(CNC(=O)c2cnc(Nc3cccc(Cl)c3)nc2C(F)(F)F)cc1` [Example 106, 2-(3-Chloro-phenylamino)-4-trifluoromethyl-pyrimidine-5-carboxylic acid 4-tert-butyl-benzylamide], the 50% effective concentration (EC50) is above 1000 nM and the Emax is below 50%.
On the same counts, the results for `O=C(NCc1ccnc(F)c1)c1cnc(Nc2cccc(F)c2)nc1C(F)(F)F` [Example 89, 2-(3-Fluoro-phenylamino)-4-trifluoromethyl-pyrimidine-5-carboxylic acid (2-fluoro-pyridin-4-ylmethyl)-amide] are 20 to 1000 nM and above 50%.
On the same counts, the results for `O=C(NCc1ccc(F)cc1C(F)(F)F)c1cnc(Nc2cccc(Cl)c2)nc1C(F)(F)F` [Example 74, 2-(3-Chloro-phenylamino)-4-trifluoromethyl-pyrimidine-5-carboxylic acid N-(4-fluoro-2-trifluoromethyl-benzyl)amide] are above 1000 nM and below 50%.
For the compound `CCN(Cc1ccccc1)C(=O)c1cnc(Nc2ccccc2Cl)nc1C(F)(F)F` [Example 53, 2-(2-Chloro-phenylamino)-4-trifluoromethyl-pyrimidine-5-carboxylic acid N-benzyl-N-ethyl-amide], the EC50 was above 1000 nM and the Emax is below 50%.
On to `O=C(NCc1ccc(F)cc1)c1cnc(Nc2ccc(Cl)c(Cl)c2)nc1C(F)(F)F` [Example 102, 2-(3,4-Dichloro-phenylamino)-4-trifluoromethyl-pyrimidine-5-carboxylic acid 4-fluoro-benzylamide], for which the EC50 lay within 20 to 1000 nM and the Emax is above 50%.
As to `CC(C)(C)OC(=O)Nc1ccc(CNC(=O)c2cnc(Nc3cccc(Cl)c3)nc2C(F)(F)F)cc1` [Example 107], the EC50 was above 1000 nM and the Emax is below 50%.
On the same counts, the results for `N#Cc1ccc(Nc2ncc(C(=O)NCc3ccccc3)c(C(F)(F)F)n2)cc1` [Example 27, 2-(4-Cyano-phenylamino)-4-trifluoromethyl-pyrimidine-5-carboxylic acid benzylamide] are 20 to 1000 nM and above 50%.
On to `CN(Cc1ccccc1)C(=O)c1cnc(Nc2ccccc2Cl)nc1C(F)(F)F` [Example 96, 2-(2-Chloro-phenylamino)-4-trifluoromethyl-pyrimidine-5-carboxylic acid benzyl-methyl-amide], for which the Emax is above 50%.
With `O=C(NCc1cccnc1)c1cnc(Nc2cccc(Cl)c2)nc1C(F)(F)F` [Example 60, 2-(3-Chloro-phenylamino)-4-trifluoromethyl-pyrimidine-5-carboxylic acid N-(pyridin-3-ylmetbyl)-amide], the EC50 is above 1000 nM and the Emax is below 50%.
For `O=C(NCc1ccc(F)cc1)c1cnc(Nc2cc(C(F)(F)F)cc(C(F)(F)F)c2)nc1C(F)(F)F` [Example 114, 2-(3,5-Ditrifluoromethyl-phenylamino)-4-trifluoromethyl-pyrimidine-5-carboxylic acid 4-fluoro-benzylamide], the EC50 is above 1000 nM and the Emax was below 50%.
The like results for `O=C(NCc1ccc(F)cc1)c1cnc(Nc2ccc(C(F)(F)F)c(F)c2)nc1C(F)(F)F` [Example 104, 2-(3-Fluoro-4-trifluoromethyl-phenylamino)-4-trifluoromethyl-pyrimidine-5-carboxylic acid 4-fluoro-benzylamide] were, in that order, 20 to 1000 nM and above 50%.
The like results for `O=C(NCc1ccnc(F)c1)c1cnc(Nc2c(Cl)cccc2Cl)nc1C(F)(F)F` [Example 93, 2-(2,6-Dichloro-phenylamino)-4-trifluoromethyl-pyrimidine-5-carboxylic acid (2-fluoro-pyridin-4-ylmethyl)-amide] were, in that order, 20 to 1000 nM and above 50%.
As for `O=C(NCc1ccccn1)c1cnc(Nc2cccc(Cl)c2)nc1C(F)(F)F` [Example 59, 2-(3-Chloro-phenylamino)-4-trifluoromethyl-pyrimidine-5-carboxylic acid N-(pyridin-2-ylmethyl)-amide], the EC50 was above 1000 nM and the Emax is below 50%.
As for `COc1cccc(CNC(=O)c2cnc(Nc3cccc(Cl)c3)nc2C(F)(F)F)c1` [Example 50, 2-(3-Chloro-phenylamino)-4-trifluoromethyl-pyrimidine-5-carboxylic acid N-(3-methoxybenzyl)amide], the EC50 is above 1000 nM and the maximal effect (Emax) is below 50%.
Take `CC(C)(C)c1ccc(Nc2ncc(C(=O)NCc3ccccc3)c(C(F)(F)F)n2)cc1` [2-(4-tert-butyl-phenylamino)-4-trifluoromethyl-pyrimidine-5-carboxylic acid benzylamide]: the “activity in the CB2 assay (in words)” value (CB2 assay described herein) is “inactive”.
As to `O=C(NCc1ccc(F)cc1)c1cnc(Nc2cc(Cl)cc(Cl)c2)nc1C(F)(F)F` [Example 25, 2-(3,5-Dichlorophenylamino)trifluoromethylpyrimidine-5-carboxylic acid 4-fluorobenzyl-amide], the EC50 was 20 to 1000 nM and the Emax was above 50%.
On to `CN(Cc1ccccc1)C(=O)c1cnc(Nc2cccc(Cl)c2)nc1C(F)(F)F` [Example 3, 2-(3-Chlorophenylamino)-4-trifluoromethylpyrimidine-5-carboxylic acid N-benzyl-N-methylamide], for which the EC50 lay in the range of 20 to 1000 nM and the Emax was above 50%.
The like results for `CN(Cc1ccccc1)C(=O)c1cnc(Nc2ccc(Cl)cc2Cl)nc1C(F)(F)F` [Example 54, 2-(2,4-Dichloro-phenylamino)-4-trifluoroniethyl-pyrimidine-5-carboxylic acid N-benzyl-N methyl-amide] were, in that order, above 1000 nM and below 50%.

(Values after patent US20060247261A1 (priority 2002, published 2006).)
